{"source": "ChEMBL document CHEMBL3046610", "about": "“Synthesis and Biological Activities of Fluorinated Plant Growth Regulators, 4, 4, 4-Trifluoro-3-(3-indolyl)butyric Acids and 4, 4, 4-Trifluoro-3-(2-indolyl)butyric Acid Bearing a Methyl Group on the Indole Nucleus” (1997)", "key": {"Oryza sativa [1]": {"system": "Oryza sativa", "assay": "Growth promoting activity in Oryza sativa (rice) assessed as increase in shoot length at 1 x 10^-6 M relative to control", "format": "functional"}, "Oryza sativa [2]": {"system": "Oryza sativa", "assay": "Growth promoting activity in Oryza sativa (rice) assessed as increase in shoot length at 1 x 10^-5 M relative to control", "format": "functional"}, "Oryza sativa [3]": {"system": "Oryza sativa", "assay": "Growth promoting activity in Oryza sativa (rice) assessed as increase in root length at 1 x 10^-6 M relative to control", "format": "functional"}, "Brassica rapa [4]": {"system": "Brassica rapa", "assay": "Growth promoting activity in Brassica rapa (Chinese cabbage) assessed as increase in root length at 1 x 10^-3 M relative to control", "format": "functional, organism-based"}, "Brassica rapa [5]": {"system": "Brassica rapa", "assay": "Growth promoting activity in Brassica rapa (Chinese cabbage) assessed as increase in root length", "format": "functional, organism-based"}, "Oryza sativa [6]": {"system": "Oryza sativa", "assay": "Growth promoting activity in Oryza sativa (rice) assessed as increase in shoot length at 1 x 10^-3 M relative to control", "format": "functional"}, "Oryza sativa [7]": {"system": "Oryza sativa", "assay": "Growth promoting activity in Oryza sativa (rice) assessed as increase in root length at 1 x 10^-5 M relative to control", "format": "functional"}, "Oryza sativa [8]": {"system": "Oryza sativa", "assay": "Growth promoting activity in Oryza sativa (rice) assessed as increase in shoot length at 1 x 10^-4 M relative to control", "format": "functional"}, "Brassica rapa [9]": {"system": "Brassica rapa", "assay": "Growth promoting activity in Brassica rapa (Chinese cabbage) assessed as increase in root length at 1 x 10^-4 M relative to control", "format": "functional"}, "Oryza sativa [10]": {"system": "Oryza sativa", "assay": "Growth promoting activity in Oryza sativa (rice) assessed as increase in root length at 1 x 10^-3 M relative to control", "format": "functional, organism-based"}, "Oryza sativa [11]": {"system": "Oryza sativa", "assay": "Growth promoting activity in Oryza sativa (rice) assessed as increase in root length at 1 x 10^-4 M relative to control", "format": "functional"}, "Lactuca sativa [12]": {"system": "Lactuca sativa", "assay": "Growth promoting activity in Lactuca sativa (lettuce) assessed as increase in root length at 1 x 10^-4 M relative to control", "format": "functional, organism-based"}, "Lactuca sativa [13]": {"system": "Lactuca sativa", "assay": "Growth promoting activity in Lactuca sativa (lettuce) assessed as increase in root length at 1 x 10^-5 M relative to control", "format": "functional, organism-based"}}, "note": "Active and inactive are the calls of the source. No cut-off for these calls is given here."}
{"smiles": "Cc1cccc2[nH]cc(C(CC(=O)O)C(F)(F)F)c12", "note": "(racemic)", "values": [{"measurement": "Activity", "setting": "Oryza sativa [1]", "result": 103.6, "unit": "%"}, {"measurement": "Activity", "setting": "Oryza sativa [2]", "result": 102.7, "unit": "%"}, {"measurement": "Activity", "setting": "Oryza sativa [3]", "result": 172.5, "unit": "%"}, {"measurement": "Activity", "setting": "Brassica rapa [4]", "result": "inactive"}, {"measurement": "Activity", "setting": "Brassica rapa [5]", "result": "Active"}, {"measurement": "Activity", "setting": "Oryza sativa [6]", "result": 33.7, "unit": "%"}, {"measurement": "Activity", "setting": "Oryza sativa [7]", "result": 357.5, "unit": "%"}, {"measurement": "Activity", "setting": "Oryza sativa [8]", "result": 86.4, "unit": "%"}, {"measurement": "fold change (FC)", "setting": "Brassica rapa [9]", "result": 2.5}, {"measurement": "Activity", "setting": "Oryza sativa [10]", "result": "inactive"}, {"measurement": "Activity", "setting": "Oryza sativa [11]", "result": 274.6, "unit": "%"}, {"measurement": "Activity", "setting": "Lactuca sativa [12]", "result": "Active"}, {"measurement": "Activity", "setting": "Lactuca sativa [13]", "result": "Active"}]}
{"smiles": "Cc1c(C(CC(=O)O)C(F)(F)F)[nH]c2ccccc12", "note": "(racemic)", "values": [{"measurement": "Activity", "setting": "Oryza sativa [1]", "result": 98.4, "unit": "%"}, {"measurement": "Activity", "setting": "Oryza sativa [2]", "result": 106.2, "unit": "%"}, {"measurement": "Activity", "setting": "Oryza sativa [3]", "result": 134.6, "unit": "%"}, {"measurement": "Activity", "setting": "Brassica rapa [4]", "result": "inactive"}, {"measurement": "Activity", "setting": "Brassica rapa [5]", "result": "Active"}, {"measurement": "Activity", "setting": "Oryza sativa [6]", "result": 38.2, "unit": "%"}, {"measurement": "Activity", "setting": "Oryza sativa [7]", "result": 266, "unit": "%"}, {"measurement": "Activity", "setting": "Oryza sativa [8]", "result": 99, "unit": "%"}, {"measurement": "fold change (FC)", "setting": "Brassica rapa [9]", "result": 2.5}, {"measurement": "Activity", "setting": "Oryza sativa [10]", "result": "inactive"}, {"measurement": "Activity", "setting": "Oryza sativa [11]", "result": 433.3, "unit": "%"}, {"measurement": "Activity", "setting": "Lactuca sativa [12]", "result": "inactive"}, {"measurement": "Activity", "setting": "Lactuca sativa [13]", "result": "Active"}]}
{"smiles": "Cc1ccc2c(C(CC(=O)O)C(F)(F)F)c[nH]c2c1", "note": "(racemic)", "values": [{"measurement": "Activity", "setting": "Oryza sativa [1]", "result": 103.3, "unit": "%"}, {"measurement": "Activity", "setting": "Oryza sativa [2]", "result": 106.2, "unit": "%"}, {"measurement": "Activity", "setting": "Oryza sativa [3]", "result": 172, "unit": "%"}, {"measurement": "Activity", "setting": "Brassica rapa [4]", "result": "inactive"}, {"measurement": "Activity", "setting": "Brassica rapa [5]", "result": "Active"}, {"measurement": "Activity", "setting": "Oryza sativa [6]", "result": 31.5, "unit": "%"}, {"measurement": "Activity", "setting": "Oryza sativa [7]", "result": 377.5, "unit": "%"}, {"measurement": "Activity", "setting": "Oryza sativa [8]", "result": 95.9, "unit": "%"}, {"measurement": "fold change (FC)", "setting": "Brassica rapa [9]", "result": 2.5}, {"measurement": "Activity", "setting": "Oryza sativa [10]", "result": "inactive"}, {"measurement": "Activity", "setting": "Oryza sativa [11]", "result": 311.4, "unit": "%"}, {"measurement": "Activity", "setting": "Lactuca sativa [12]", "result": "Active"}, {"measurement": "Activity", "setting": "Lactuca sativa [13]", "result": "Active"}]}
{"smiles": "Cc1cccc2c(C(CC(=O)O)C(F)(F)F)c[nH]c12", "note": "(racemic)", "values": [{"measurement": "Activity", "setting": "Oryza sativa [1]", "result": 96, "unit": "%"}, {"measurement": "Activity", "setting": "Oryza sativa [2]", "result": 112.8, "unit": "%"}, {"measurement": "Activity", "setting": "Oryza sativa [3]", "result": 126, "unit": "%"}, {"measurement": "Activity", "setting": "Brassica rapa [4]", "result": "inactive"}, {"measurement": "Activity", "setting": "Brassica rapa [5]", "result": "Active"}, {"measurement": "Activity", "setting": "Oryza sativa [6]", "result": 36.9, "unit": "%"}, {"measurement": "Activity", "setting": "Oryza sativa [7]", "result": 277.1, "unit": "%"}, {"measurement": "Activity", "setting": "Oryza sativa [8]", "result": 83.3, "unit": "%"}, {"measurement": "fold change (FC)", "setting": "Brassica rapa [9]", "result": 2.5}, {"measurement": "Activity", "setting": "Oryza sativa [10]", "result": "inactive"}, {"measurement": "Activity", "setting": "Oryza sativa [11]", "result": 224.4, "unit": "%"}, {"measurement": "Activity", "setting": "Lactuca sativa [12]", "result": "Active"}, {"measurement": "Activity", "setting": "Lactuca sativa [13]", "result": "Active"}]}
{"smiles": "O=C(O)CC(c1c[nH]c2ccccc12)C(F)(F)F", "note": "(racemic)", "values": [{"measurement": "Activity", "setting": "Oryza sativa [1]", "result": 99.2, "unit": "%"}, {"measurement": "Activity", "setting": "Oryza sativa [2]", "result": 99, "unit": "%"}, {"measurement": "Activity", "setting": "Oryza sativa [3]", "result": 128.9, "unit": "%"}, {"measurement": "Activity", "setting": "Oryza sativa [6]", "result": 35.6, "unit": "%"}, {"measurement": "Activity", "setting": "Oryza sativa [7]", "result": 290.1, "unit": "%"}, {"measurement": "Activity", "setting": "Oryza sativa [8]", "result": 76.7, "unit": "%"}, {"measurement": "Activity", "setting": "Oryza sativa [10]", "result": "inactive"}, {"measurement": "Activity", "setting": "Oryza sativa [11]", "result": 199.5, "unit": "%"}]}
{"smiles": "Cc1[nH]c2ccccc2c1C(CC(=O)O)C(F)(F)F", "note": "(racemic)", "values": [{"measurement": "Activity", "setting": "Oryza sativa [1]", "result": 98.8, "unit": "%"}, {"measurement": "Activity", "setting": "Oryza sativa [2]", "result": 103.2, "unit": "%"}, {"measurement": "Activity", "setting": "Oryza sativa [3]", "result": 111.8, "unit": "%"}, {"measurement": "Activity", "setting": "Brassica rapa [4]", "result": "inactive"}, {"measurement": "Activity", "setting": "Oryza sativa [6]", "result": 36.6, "unit": "%"}, {"measurement": "Activity", "setting": "Oryza sativa [7]", "result": 242, "unit": "%"}, {"measurement": "Activity", "setting": "Oryza sativa [8]", "result": 84, "unit": "%"}, {"measurement": "Activity", "setting": "Oryza sativa [10]", "result": "inactive"}, {"measurement": "Activity", "setting": "Oryza sativa [11]", "result": 168, "unit": "%"}, {"measurement": "Activity", "setting": "Lactuca sativa [12]", "result": "inactive"}, {"measurement": "Activity", "setting": "Lactuca sativa [13]", "result": "inactive"}]}
{"smiles": "Cc1ccc2[nH]cc(C(CC(=O)O)C(F)(F)F)c2c1", "note": "(racemic)", "values": [{"measurement": "Activity", "setting": "Oryza sativa [1]", "result": 100.5, "unit": "%"}, {"measurement": "Activity", "setting": "Oryza sativa [2]", "result": 105.5, "unit": "%"}, {"measurement": "Activity", "setting": "Oryza sativa [3]", "result": 168.5, "unit": "%"}, {"measurement": "Activity", "setting": "Brassica rapa [4]", "result": "inactive"}, {"measurement": "Activity", "setting": "Oryza sativa [6]", "result": 31.9, "unit": "%"}, {"measurement": "Activity", "setting": "Oryza sativa [7]", "result": 382.4, "unit": "%"}, {"measurement": "Activity", "setting": "Oryza sativa [8]", "result": 90, "unit": "%"}, {"measurement": "Activity", "setting": "Oryza sativa [10]", "result": "inactive"}, {"measurement": "Activity", "setting": "Oryza sativa [11]", "result": 331.1, "unit": "%"}, {"measurement": "Activity", "setting": "Lactuca sativa [12]", "result": "Active"}, {"measurement": "Activity", "setting": "Lactuca sativa [13]", "result": "Active"}]}
{"smiles": "Cn1cc(C(CC(=O)O)C(F)(F)F)c2ccccc21", "note": "(racemic)", "values": [{"measurement": "Activity", "setting": "Oryza sativa [1]", "result": 94.6, "unit": "%"}, {"measurement": "Activity", "setting": "Oryza sativa [2]", "result": 105.3, "unit": "%"}, {"measurement": "Activity", "setting": "Oryza sativa [3]", "result": 136.2, "unit": "%"}, {"measurement": "Activity", "setting": "Brassica rapa [4]", "result": "inactive"}, {"measurement": "Activity", "setting": "Brassica rapa [5]", "result": "inactive"}, {"measurement": "Activity", "setting": "Oryza sativa [6]", "result": 46, "unit": "%"}, {"measurement": "Activity", "setting": "Oryza sativa [7]", "result": 211.1, "unit": "%"}, {"measurement": "Activity", "setting": "Oryza sativa [8]", "result": 86.2, "unit": "%"}, {"measurement": "Activity", "setting": "Oryza sativa [10]", "result": "inactive"}, {"measurement": "Activity", "setting": "Oryza sativa [11]", "result": 153.4, "unit": "%"}, {"measurement": "Activity", "setting": "Lactuca sativa [12]", "result": "Active"}, {"measurement": "Activity", "setting": "Lactuca sativa [13]", "result": "inactive"}]}
